Experiment [1] has as its target T1, (α4)2(β2)3 nAChR (Homo sapiens, UniProt P17787+P43681).
T1 construct: expressed in transfected cells; host or cells: Xenopus laevis oocytes injected with cRNA
The experiment in a line: Two-electrode voltage-clamp of ACh-induced currents in Xenopus oocytes. It counts as cell-based. As for the experimental part:
To begin to characterize LY2087101 interaction with the heteropentameric α4β2 nAChRs, we examined the selectivity of LY2087101 for the two α4β2 nAChR isoforms; high-agonist sensitivity (α4)2(β2)3 and low-agonist sensitivity (α4)3(β2)2 nAChRs. Xenopus oocytes were injected with α4 and β2 subunits RNAs at ratios 8:1 and 1:8 to favor expression of (α4)3(β2)2 and (α4)2(β2)3 nAChRs, respectively.
Ovarian lobules were surgically harvested from oocytes-positive female Xenopus laevis (NASCO, Fort Atkinson, WI) according to an animal use protocol approved by the Texas A&M Health Sciences Center Institutional Animals Care and Use Committee. The Texas A&M Health Sciences Center Research Facility is registered as an animal research facility with the United States Department of Agriculture and is fully accredited by the American Association for Accreditation of Laboratory Animal Care (AAALAC). For oocytes defolliculation, ovarian lobes were treated with 3 mg/ml collagenase type 2 (Worthington Biomedical, Lakewood, NJ) in Ca + 2-free buffer (85 mM NaCl, 2.5 mM KCl, 1 mM MgCl2, 5 mM HEPES, pH 7.6). Collagenase treatment was allowed to proceed for 3 hours at room temperature with gentle shaking then oocytes were washed several times with buffer to remove collagenase then with ND96-gentamicine buffer. Healthy Stage V and VI oocytes were visually selected and maintained at 18 °C in modified ND96-gentamicine buffer (96 mM NaCl, 2 mM KCl, 1.8 mM CaCl2, 1 mM MgCl2, 5 mM HEPES, 50 µg/ml gentamicin, pH 7.6). Oocytes were injected with 50–100 ng of the desired nAChR subunits cRNA mix at ratios of 8α:1β or 1α:8β to express nAChRs with subunit stoichiometries of 3α:2β (low agonist sensitivity) or 2α:3β (high agonist sensitivity), respectively.
Oocytes were continuously perfused with recording buffer (100 mM NaCl, 2 mM KCl, 1 mM CaCl2, 0.8 mM MgCl2, 1 mM EGTA, 10 mM Hepes, pH 7.5) except during periods of drug applications.
A general note: Two-electrode voltage clamp holds a large cell at a set potential and records current.

Experiment [2] relates to animal model. Also noted: method as in PMID 23712602, PMID 28446611, PMID 28809075, PMID 28105008. Conditions: cited from earlier work.
The test system of experiment [3] is animal model. Also noted: method as in PMID 23712602, PMID 28446611, PMID 28809075, PMID 28105008. Particulars: cited from earlier work. The source holds these as a separate data set.
In the next experiment the target is (α4E92I)3(β2)2 nAChR (Homo sapiens, UniProt P43681, E92I). Also noted: method as in PMID 28446611. Conditions: 10 µM ACh + 1 µM dFBr vs 10 µM ACh alone; data reported previously ref 29; cited from earlier work.
The next experiment has as its target (α4R148E)3(β2)2 nAChR (Homo sapiens, UniProt P43681, R148E). Also on record: method as in PMID 28446611. Particulars: 10 µM ACh + 1 µM dFBr vs 10 µM ACh alone; data reported previously ref 29; cited from earlier work.
Experiment [4] concerns the target T1, (α4)2(β2)3 nAChR. Particulars: cited from earlier work.

“And” between values parts separate entries of the source, which are not always exact repeats. Identical values can stand only once. Like-named read-outs stand apart in the source and are kept apart here. Marks after values point to notes of the source that are not given here.

T1 sequence (P43681 29-627 limits assumed): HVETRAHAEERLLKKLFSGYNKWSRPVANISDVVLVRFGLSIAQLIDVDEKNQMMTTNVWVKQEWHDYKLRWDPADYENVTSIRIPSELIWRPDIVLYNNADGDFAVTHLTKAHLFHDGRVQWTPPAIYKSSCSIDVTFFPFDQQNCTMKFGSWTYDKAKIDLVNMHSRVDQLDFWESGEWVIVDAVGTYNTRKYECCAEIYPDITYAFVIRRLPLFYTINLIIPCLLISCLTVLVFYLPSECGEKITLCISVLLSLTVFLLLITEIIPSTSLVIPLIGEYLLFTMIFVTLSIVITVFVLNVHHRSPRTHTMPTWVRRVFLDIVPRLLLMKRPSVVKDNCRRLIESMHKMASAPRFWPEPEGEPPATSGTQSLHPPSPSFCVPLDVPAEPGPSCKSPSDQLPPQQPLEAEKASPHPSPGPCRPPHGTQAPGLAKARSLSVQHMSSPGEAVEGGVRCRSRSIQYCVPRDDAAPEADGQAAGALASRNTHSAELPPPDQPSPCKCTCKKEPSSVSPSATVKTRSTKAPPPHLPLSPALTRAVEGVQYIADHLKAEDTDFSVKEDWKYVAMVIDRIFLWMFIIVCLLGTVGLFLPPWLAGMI
T1 sequence (P17787 26-502): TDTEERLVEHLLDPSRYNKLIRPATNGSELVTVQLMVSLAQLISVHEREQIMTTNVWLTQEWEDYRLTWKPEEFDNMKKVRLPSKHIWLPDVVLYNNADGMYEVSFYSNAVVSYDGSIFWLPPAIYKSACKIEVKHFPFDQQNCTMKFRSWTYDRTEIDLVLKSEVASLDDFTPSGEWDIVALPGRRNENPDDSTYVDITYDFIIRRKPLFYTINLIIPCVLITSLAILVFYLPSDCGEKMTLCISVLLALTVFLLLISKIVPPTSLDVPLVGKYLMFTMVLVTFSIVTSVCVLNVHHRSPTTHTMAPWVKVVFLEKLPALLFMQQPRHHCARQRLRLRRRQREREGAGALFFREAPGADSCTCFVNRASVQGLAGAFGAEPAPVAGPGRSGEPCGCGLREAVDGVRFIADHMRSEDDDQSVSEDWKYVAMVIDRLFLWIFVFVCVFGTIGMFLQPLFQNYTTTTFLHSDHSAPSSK
Chain of (α4E92I)3(β2)2 nAChR (P43681 29-627 E92I limits assumed): as the sequence (P43681 29-627 limits assumed) above, with E64I counted along it
Chain of (α4E92I)3(β2)2 nAChR (P17787 26-502 partner): as the sequence (P17787 26-502) above
Chain of (α4R148E)3(β2)2 nAChR (P43681 29-627 R148E limits assumed): as the sequence (P43681 29-627 limits assumed) above, with R120E counted along it
Chain of (α4R148E)3(β2)2 nAChR (P17787 26-502 partner): as the sequence (P17787 26-502) above

In the case of `Cc1nc(Nc2ccc(F)cc2)sc1C(=O)c1ccsc1` [LY2087101, [2-[(4-Fluorophenyl)amino]-4-methyl-5-thiazolyl]-3-thienylmethanone], the “ACh Imax in the presence of 1 µM LY2087101” value at (α4)2(β2)3 nAChR [1] (ACh concentration-response curve, normalized to 1 mM ACh alone) is 189 ± 2% and ~190%. Further, on (α4)2(β2)3 nAChR [1] (co-applied with 10 µM ACh, HS WT, read-out: LY2087101 potentiation EC50), the half-maximal effective concentration (EC50) stood at 1900 ± 40 nM.
Regarding `C=CC(C)(C)c1[nH]c2cc(Br)ccc2c1CCNC` [dFBr], in the experiment with animal model [2], the nicotine withdrawal signs result is “reverse nicotine withdrawal signs”. The “antiallodynic response of nicotine” value in the experiment on animal model [3] is “potentiate the antiallodynic response of nicotine”. In addition, the “R, potentiation ratio (PR)” value at (α4E92I)3(β2)2 nAChR is recorded as 9.3 ± 1.8^a; on (α4R148E)3(β2)2 nAChR it was 10.3 ± 2.4^a. Further, the “increase in ACh efficacy (Imax) by dFBr” value at (α4)2(β2)3 nAChR [4] (ACh concentration-response curve) is ~ 4 fold. Further, on (α4)2(β2)3 nAChR [4], the dFBr maximal potentiation was 300%. Further, the EC50 on (α4)2(β2)3 nAChR [4] (read-out: dFBr potentiation EC50) is around 1000 nM.

A word on the EC50: it is the midpoint of the concentration-response curve.

The values above are taken from article PMC5775429, “LY2087101 and dFBr share transmembrane binding sites in the (α4)3(β2)2 Nicotinic Acetylcholine Receptor” (Scientific Reports, 2018).
